# Test results: the supplement of paper PMC10307832
# Key:
# Experiment in all cases: relative viability (nuclei count vs DMSO), 5 days (fraction); higher = more cells survive
# [1] = compound: CCC1=CN=CN=C1N2CCN(CC2)CC3=NC4=C(N3)C=C(C=C4)C(F)(F)F + CC(C)C[C@H](NC(=O)[C@H](Cc1ccccc1)NC(=O)c1cnccn1)B(O)O [Bortezomib] (partner 0.002 µM)
# Procedure, shortened: (§1)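 Lung cancer cell lines in 1536-well plates were dosed by pin tool the day after seeding, either with one drug alone or with a fixed anchor-drug dose plus five library-drug doses (not always all listed) in √10 steps. After 5 days, cells were fixed and their nuclei stained in one step (final 0.05% Triton X-100, 1% formaldehyde, 1 ug/ml Hoechst), then counted on 4× images. Relative viability is the nuclei count in treated wells divided by that in vehicle wells. Values are medians of duplicate plates.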
# [2] = compound: CCn1c(-c2nonc2N)nc2cnc(Oc3cccc(NC(=O)c4ccc(OCCN5CCOCC5)cc4)c3)cc21 + Nc1ncn([C@H]2C[C@H](O)[C@@H](CO)O2)c(=O)n1 [Decitabine] (partner 2 µM)
# Procedure, shortened: as §1
# [3] = compound: CCC1=CN=CN=C1N2CCN(CC2)CC3=NC4=C(N3)C=C(C=C4)C(F)(F)F + C[C@@H](Oc1cc(-c2cnn(C3CCNCC3)c2)cnc1N)c1c(Cl)ccc(F)c1Cl [Crizotinib] (partner 1 µM)
# Procedure, shortened: as §1
# [4] = compound: N=C1NC(=O)/C(=C/c2ccc(O)cc2)S1 [Mirin] + CCNC(=O)c1noc(-c2cc(C(C)C)c(O)cc2O)c1-c1ccc(CN2CCOCC2)cc1 [Luminespib] (partner 0.01 µM)
# Procedure, shortened: as §1
Cell Line,relative viability ([1]; first compound 0.04 µM),relative viability ([1]; first compound 0.1265 µM),relative viability ([1]; first compound 0.4 µM),relative viability ([1]; first compound 1.265 µM),relative viability ([1]; first compound 4 µM),relative viability ([2]; first compound 0.04 µM),relative viability ([2]; first compound 0.1265 µM),relative viability ([2]; first compound 0.4 µM),relative viability ([2]; first compound 1.265 µM),relative viability ([2]; first compound 4 µM),relative viability ([3]; first compound 0.04 µM),relative viability ([3]; first compound 0.1265 µM),relative viability ([3]; first compound 0.4 µM),relative viability ([3]; first compound 1.265 µM),relative viability ([3]; first compound 4 µM),relative viability ([4]; first compound 0.25 µM),relative viability ([4]; first compound 0.7906 µM),relative viability ([4]; first compound 2.5 µM),relative viability ([4]; first compound 7.906 µM),relative viability ([4]; first compound 25 µM)
NCI-H1650,0.18,0.222,0.199,0.211,0.19,0.504,0.282,0.348,0.604,0.478,0.942,0.853,1.03,1.06,1.42,0.183,0.176,0.175,0.18,0.179
NCI-H647,1.3,0.938,–,0.884,0.955,0.379,0.426,0.276,0.288,0.347,1.12,1.13,–,1.04,1.19,0.115,0.11,0.17,0.241,0.09
HCC-15,0.931,0.921,0.953,1.08,1.05,0.608,0.516,0.446,0.427,0.507,0.75,0.78,0.819,0.946,1.06,0.353,0.391,0.289,0.452,0.274
NCI-H838,0.945,0.747,0.782,0.597,1.03,0.422,0.393,0.303,0.331,0.271,0.917,0.845,0.908,0.947,1.27,0.316,0.332,0.285,0.229,0.396
